# From patent US10344060B2 (priority 2013, dated 2019)
# Read-outs that look alike come from different tables or passages of the source.
# Experiments:
# Test in all cases: cell-based
# hNav1.5 = hNav1.5 (Homo sapiens, UniProt Q14524); settings: for Nav1.5/Nav1.7: ratio of PX tonic IC50 values; for IC50: read-out: PX hNav1.5 Tonic IC50
# hNav1.4 [1] = target: T1, hNav1.4 (Homo sapiens, UniProt P35499); type: cell-based; settings: for Nav1.4/Nav1.7: ratio of PX tonic IC50 values; for IC50: read-out: PX hNav1.4 Tonic IC50
# hNav1.4 [2] = target: T1, hNav1.4; type: cell-based; settings: ratio of IonWorks Quattro IC50 values; Table 9
# hNav1.7 = hNav1.7 (Homo sapiens, UniProt Q15858); type: cell-based; settings: read-out: PX hNav1.7 Tonic IC50
# hNav1.6 = hNav1.6 (Homo sapiens, UniProt Q9UQD0); type: cell-based; settings: Table 15; ratio of PX tonic IC50 values
# [3] = Table 12, PatchXpress, tonic block
# T1 sequence (P35499 whole entry): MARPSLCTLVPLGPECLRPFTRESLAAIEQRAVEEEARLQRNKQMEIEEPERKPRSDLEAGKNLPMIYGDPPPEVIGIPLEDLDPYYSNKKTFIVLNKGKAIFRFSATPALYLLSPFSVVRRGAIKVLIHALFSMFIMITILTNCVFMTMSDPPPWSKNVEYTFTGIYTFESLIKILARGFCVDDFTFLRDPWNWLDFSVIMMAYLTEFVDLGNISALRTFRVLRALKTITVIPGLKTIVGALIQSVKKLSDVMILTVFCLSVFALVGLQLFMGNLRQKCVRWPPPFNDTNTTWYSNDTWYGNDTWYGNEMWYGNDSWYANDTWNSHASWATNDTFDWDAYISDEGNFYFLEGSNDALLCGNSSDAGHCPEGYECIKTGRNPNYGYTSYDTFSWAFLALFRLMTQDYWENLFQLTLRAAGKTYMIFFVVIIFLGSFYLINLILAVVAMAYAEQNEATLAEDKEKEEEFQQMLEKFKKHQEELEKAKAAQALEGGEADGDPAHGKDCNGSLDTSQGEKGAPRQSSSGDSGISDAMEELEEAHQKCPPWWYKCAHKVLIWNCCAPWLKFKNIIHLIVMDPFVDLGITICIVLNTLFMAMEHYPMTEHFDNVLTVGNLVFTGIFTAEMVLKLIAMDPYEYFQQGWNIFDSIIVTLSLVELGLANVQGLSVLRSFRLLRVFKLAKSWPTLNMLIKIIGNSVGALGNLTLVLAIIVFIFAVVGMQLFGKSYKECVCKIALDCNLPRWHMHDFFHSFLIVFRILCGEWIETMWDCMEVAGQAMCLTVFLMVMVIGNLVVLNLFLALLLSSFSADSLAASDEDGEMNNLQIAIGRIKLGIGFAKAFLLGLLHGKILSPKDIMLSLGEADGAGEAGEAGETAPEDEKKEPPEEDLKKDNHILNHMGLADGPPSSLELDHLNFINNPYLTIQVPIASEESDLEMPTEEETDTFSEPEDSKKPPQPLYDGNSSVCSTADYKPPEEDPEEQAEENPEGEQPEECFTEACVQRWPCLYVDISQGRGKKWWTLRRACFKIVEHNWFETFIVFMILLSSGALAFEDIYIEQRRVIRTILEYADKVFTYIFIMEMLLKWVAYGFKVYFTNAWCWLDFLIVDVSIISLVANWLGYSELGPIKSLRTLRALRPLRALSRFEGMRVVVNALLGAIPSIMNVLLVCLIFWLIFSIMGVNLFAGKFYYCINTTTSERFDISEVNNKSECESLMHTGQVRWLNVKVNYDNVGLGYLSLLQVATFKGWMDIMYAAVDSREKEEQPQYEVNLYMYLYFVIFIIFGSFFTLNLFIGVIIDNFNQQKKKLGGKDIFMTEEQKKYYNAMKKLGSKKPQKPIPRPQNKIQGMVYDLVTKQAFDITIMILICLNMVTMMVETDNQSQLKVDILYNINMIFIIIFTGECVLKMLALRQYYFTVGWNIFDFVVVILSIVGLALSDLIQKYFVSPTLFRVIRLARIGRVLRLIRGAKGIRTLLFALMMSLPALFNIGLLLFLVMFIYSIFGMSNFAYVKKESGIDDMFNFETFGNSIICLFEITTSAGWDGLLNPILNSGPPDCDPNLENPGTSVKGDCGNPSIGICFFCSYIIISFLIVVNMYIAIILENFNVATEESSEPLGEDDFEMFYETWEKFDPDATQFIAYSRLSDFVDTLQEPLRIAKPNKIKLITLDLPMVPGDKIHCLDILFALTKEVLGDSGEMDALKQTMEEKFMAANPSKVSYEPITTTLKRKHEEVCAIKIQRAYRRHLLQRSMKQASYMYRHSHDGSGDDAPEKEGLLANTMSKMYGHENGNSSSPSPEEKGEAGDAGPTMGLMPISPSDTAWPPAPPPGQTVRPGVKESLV
# Chain of hNav1.7 (Q15858 whole entry): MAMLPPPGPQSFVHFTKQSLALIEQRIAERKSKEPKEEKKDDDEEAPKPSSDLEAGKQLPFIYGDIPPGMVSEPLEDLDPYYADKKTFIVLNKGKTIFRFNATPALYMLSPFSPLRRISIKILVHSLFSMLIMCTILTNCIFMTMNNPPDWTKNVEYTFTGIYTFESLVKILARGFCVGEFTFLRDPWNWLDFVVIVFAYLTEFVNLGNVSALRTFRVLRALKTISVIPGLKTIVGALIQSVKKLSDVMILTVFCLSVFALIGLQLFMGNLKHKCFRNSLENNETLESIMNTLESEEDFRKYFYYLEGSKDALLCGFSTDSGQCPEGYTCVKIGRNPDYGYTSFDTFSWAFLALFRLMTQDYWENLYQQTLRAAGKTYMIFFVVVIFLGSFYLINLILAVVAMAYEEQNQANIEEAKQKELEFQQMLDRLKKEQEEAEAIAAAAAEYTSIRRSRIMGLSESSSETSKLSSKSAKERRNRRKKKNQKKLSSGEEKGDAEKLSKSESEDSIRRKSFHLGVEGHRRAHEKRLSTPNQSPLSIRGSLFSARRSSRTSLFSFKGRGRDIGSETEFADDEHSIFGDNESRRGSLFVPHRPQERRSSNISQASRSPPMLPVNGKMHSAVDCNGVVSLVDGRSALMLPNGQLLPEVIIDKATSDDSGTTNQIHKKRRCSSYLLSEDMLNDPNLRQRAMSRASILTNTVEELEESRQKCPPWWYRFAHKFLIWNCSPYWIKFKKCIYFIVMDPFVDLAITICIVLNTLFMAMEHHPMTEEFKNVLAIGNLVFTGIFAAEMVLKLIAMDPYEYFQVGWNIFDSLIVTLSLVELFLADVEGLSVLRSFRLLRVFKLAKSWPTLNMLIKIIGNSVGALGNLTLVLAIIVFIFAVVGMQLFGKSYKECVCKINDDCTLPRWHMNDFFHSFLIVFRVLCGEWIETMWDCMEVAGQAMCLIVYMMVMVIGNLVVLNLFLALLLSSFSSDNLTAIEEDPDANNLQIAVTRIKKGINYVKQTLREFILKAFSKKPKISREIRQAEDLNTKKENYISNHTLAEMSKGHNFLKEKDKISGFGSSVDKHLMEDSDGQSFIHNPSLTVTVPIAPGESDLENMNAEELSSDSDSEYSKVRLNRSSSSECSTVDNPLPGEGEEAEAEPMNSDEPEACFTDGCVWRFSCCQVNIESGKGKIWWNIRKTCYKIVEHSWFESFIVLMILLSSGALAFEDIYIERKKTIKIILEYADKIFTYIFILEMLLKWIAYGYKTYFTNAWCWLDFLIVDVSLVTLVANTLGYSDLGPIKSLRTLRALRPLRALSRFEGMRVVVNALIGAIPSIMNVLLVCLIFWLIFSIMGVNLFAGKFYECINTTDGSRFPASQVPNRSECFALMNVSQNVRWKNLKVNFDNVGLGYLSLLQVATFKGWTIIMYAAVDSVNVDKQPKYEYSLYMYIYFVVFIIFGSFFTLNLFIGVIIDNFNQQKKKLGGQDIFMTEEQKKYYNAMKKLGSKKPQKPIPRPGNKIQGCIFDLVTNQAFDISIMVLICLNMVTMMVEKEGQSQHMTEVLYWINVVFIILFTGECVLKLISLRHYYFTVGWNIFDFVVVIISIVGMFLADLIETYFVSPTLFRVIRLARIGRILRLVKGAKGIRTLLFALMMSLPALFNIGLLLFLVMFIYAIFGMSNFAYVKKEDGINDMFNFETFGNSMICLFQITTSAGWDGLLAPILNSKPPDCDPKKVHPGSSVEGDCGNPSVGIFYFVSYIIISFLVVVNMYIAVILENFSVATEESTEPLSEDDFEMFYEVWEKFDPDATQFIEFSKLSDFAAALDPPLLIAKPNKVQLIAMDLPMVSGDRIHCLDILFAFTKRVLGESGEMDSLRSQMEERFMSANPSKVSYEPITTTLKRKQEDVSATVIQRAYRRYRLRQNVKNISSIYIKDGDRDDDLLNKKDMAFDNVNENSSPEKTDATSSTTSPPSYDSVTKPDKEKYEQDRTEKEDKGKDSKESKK
smiles,measurement,setting,value
C#CC[C@@H]1NC(=O)[C@H](CCCNC(=N)N)NC(=O)[C@H](CCCCN)NC(=O)[C@H](CO)NC(=O)[C@H](CC(=O)O)NC(=O)[C@@H]2CSSC[C@@H]3NC(=O)[C@H](CCCNC(=N)N)NC(=O)[C@H](CC(C)C)NC(=O)CNC(=O)[C@H](CCC(=O)O)NC(=O)[C@H](CSSC[C@H](NC(=O)[C@@H](N)Cc4ccc(O)cc4)C(=O)N[C@@H](CCC(N)=O)C(=O)N[C@@H](CCCCN)C(=O)N[C@@H](Cc4c[nH]c5ccccc45)C(=O)N[C@@H](CCCC)C(=O)N[C@@H](Cc4c[nH]c5ccccc45)C(=O)N[C@@H]([C@@H](C)O)C(=O)N2)NC(=O)[C@H](CSSC[C@@H](C(=O)N[C@@H](CCCNC(=N)N)C(=O)N[C@@H](CCCCN)C(=O)N[C@H](C(=O)N[C@H](C(N)=O)[C@@H](C)CC)[C@@H](C)CC)NC(=O)[C@H](Cc2c[nH]c4ccccc24)NC(=O)[C@H](CC(C)C)NC(=O)[C@H](CCCCN)NC3=O)NC1=O [compound 283],Nav1.5/Nav1.7,hNav1.5; Table 12,2090
same,Nav1.4/Nav1.7,hNav1.4 [1]; Table 12,17
same,Nav1.4/Nav1.7,hNav1.4 [2],1
C#CC[C@H](N)C(=O)N[C@@H](Cc1ccc(O)cc1)C(=O)N[C@H]1CSSC[C@@H]2NC(=O)[C@@H]3CSSC[C@@H](C(=O)N[C@@H](CCCNC(=N)N)C(=O)N[C@@H](CCCCN)C(=O)N[C@H](C(=O)N[C@@H](Cc4c[nH]c5ccccc45)C(N)=O)[C@@H](C)CC)NC(=O)[C@H](Cc4c[nH]c5ccccc45)NC(=O)[C@H](CC(C)C)NC(=O)[C@H](CCCCN)NC(=O)[C@H](CSSC[C@H](NC(=O)[C@H]([C@@H](C)O)NC(=O)[C@H](Cc4c[nH]c5ccccc45)NC(=O)[C@H](CCCC)NC(=O)[C@H](Cc4c[nH]c5ccccc45)NC(=O)[C@H](CCCCN)NC(=O)[C@H](CCC(N)=O)NC1=O)C(=O)N[C@@H](CC(=O)O)C(=O)N[C@@H](CO)C(=O)N[C@@H](CCCCN)C(=O)N[C@@H](CCCNC(=N)N)C(=O)N[C@@H](C)C(=O)N3)NC(=O)[C@H](CCCNC(=N)N)NC(=O)[C@H](CC(C)C)NC(=O)CNC(=O)[C@H](CCC(=O)O)NC2=O [compound 296],IC50,hNav1.5; [3],2290 nM
same,Nav1.5/Nav1.7,hNav1.5; Table 12,479
same,IC50,hNav1.4 [1]; [3],37 nM
same,Nav1.4/Nav1.7,hNav1.4 [1]; Table 12,8
same,IC50,hNav1.7; [3],4.79 nM
C#CC[C@H](N)C(=O)N[C@@H](Cc1ccc(O)cc1)C(=O)N[C@H]1CSSC[C@@H]2NC(=O)[C@@H]3CSSC[C@@H](C(=O)N[C@@H](CCCNC(=N)N)C(=O)N[C@@H](CCCCN)C(=O)N[C@@H](CCC(=O)O)C(=O)N[C@H](C(N)=O)[C@@H](C)CC)NC(=O)[C@H](Cc4c[nH]c5ccccc45)NC(=O)[C@H](CC(C)C)NC(=O)[C@H](CCCCN)NC(=O)[C@H](CSSC[C@H](NC(=O)[C@H]([C@@H](C)O)NC(=O)[C@H](Cc4c[nH]c5ccccc45)NC(=O)[C@H](CCCC)NC(=O)[C@H](Cc4c[nH]c5ccccc45)NC(=O)[C@H](CCCCN)NC(=O)[C@H](CCC(N)=O)NC1=O)C(=O)N[C@@H](CC(=O)O)C(=O)N[C@@H](CCC(=O)O)C(=O)N[C@@H](CCCCN)C(=O)N[C@@H](CCCNC(=N)N)C(=O)N[C@@H](C)C(=O)N3)NC(=O)[C@H](CCCNC(=N)N)NC(=O)[C@H](CC(C)C)NC(=O)CNC(=O)[C@H](CCC(=O)O)NC2=O [compound 714],Nav1.5/Nav1.7,hNav1.5; Table 12,>6341
same,Nav1.4/Nav1.7,hNav1.4 [1]; Table 12,241
same,Nav1.6/Nav1.7,hNav1.6,737
CCC[C@H](N)C(=O)N[C@@H](Cc1ccc(O)cc1)C(=O)N[C@H]1CSSC[C@@H]2NC(=O)[C@@H]3CSSC[C@@H](C(=O)N[C@@H](CCCNC(=N)N)C(=O)N[C@@H](CCCCN)C(=O)N[C@H](C(=O)N[C@H](C(N)=O)[C@@H](C)CC)[C@@H](C)CC)NC(=O)[C@H](Cc4c[nH]c5ccccc45)NC(=O)[C@H](CC(C)C)NC(=O)[C@H](CCCCN)NC(=O)[C@H](CSSC[C@H](NC(=O)[C@H]([C@@H](C)O)NC(=O)[C@H](Cc4c[nH]c5ccccc45)NC(=O)[C@H](CC(C)C)NC(=O)[C@H](Cc4c[nH]c5ccccc45)NC(=O)[C@H](CCCCN)NC(=O)[C@H](CCC(N)=O)NC1=O)C(=O)N[C@@H](CC(=O)O)C(=O)N[C@@H](CO)C(=O)N[C@@H](CCCCN)C(=O)N[C@@H](CCCNC(=N)N)C(=O)N[C@@H](CCCCNC(=O)[C@@H](N)Cc1cn(CCOCCOCCOCCOCCOCCOCCOCCOCCOCCOCCN)nn1)C(=O)N3)NC(=O)[C@H](CCCNC(=N)N)NC(=O)[C@H](CC(C)C)NC(=O)CNC(=O)[C@H](CCC(=O)O)NC2=O [compound 446],Nav1.5/Nav1.7,hNav1.5; Table 13,207
same,IC50,hNav1.5,2410 nM
same,Nav1.4/Nav1.7,hNav1.4 [1]; Table 13,11
same,IC50,hNav1.4 [1],128 nM
same,IC50,hNav1.7,11.6 nM
C#CC[C@H](N)C(=O)NCCOCCOCCOCCOCCC(=O)NCCCC[C@@H]1NC(=O)[C@H](CCCNC(=N)N)NC(=O)[C@H](CCCCN)NC(=O)[C@H](CO)NC(=O)[C@H](CC(=O)O)NC(=O)[C@@H]2CSSC[C@@H]3NC(=O)[C@H](CCCNC(=N)N)NC(=O)[C@H](CC(C)C)NC(=O)CNC(=O)[C@H](CCC(=O)O)NC(=O)[C@H](CSSC[C@H](NC(=O)[C@H](Cc4ccc(O)cc4)NC(=O)[C@@H](N)CC#N)C(=O)N[C@@H](CCC(N)=O)C(=O)N[C@@H](CCCCN)C(=O)N[C@@H](Cc4c[nH]c5ccccc45)C(=O)N[C@@H](CCCC)C(=O)N[C@@H](Cc4c[nH]c5ccccc45)C(=O)N[C@@H]([C@@H](C)O)C(=O)N2)NC(=O)[C@H](CSSC[C@@H](C(=O)N[C@@H](CCCNC(=N)N)C(=O)N[C@@H](CCCCN)C(=O)N[C@H](C(=O)N[C@H](C(N)=O)[C@@H](C)CC)[C@@H](C)CC)NC(=O)[C@H](Cc2c[nH]c4ccccc24)NC(=O)[C@H](CC(C)C)NC(=O)[C@H](CCCCN)NC3=O)NC1=O [compound 380],Nav1.5/Nav1.7,hNav1.5; Table 12,0
same,Nav1.4/Nav1.7,hNav1.4 [1]; Table 12,0
same,IC50,hNav1.7; [3],0.845 nM
CCCC[C@@H]1NC(=O)[C@H](Cc2c[nH]c3ccccc23)NC(=O)[C@H](CCCCN)NC(=O)[C@H](CCC(N)=O)NC(=O)[C@@H](NC(=O)[C@H](Cc2ccc(O)cc2)NC(=O)[C@@H](N)Cc2cn(CCCCCCNC(=O)CCOCCOCCOCCOCCNC(=O)CCCC[C@@H]3SC[C@@H]4NC(=O)N[C@@H]43)nn2)CSSC[C@@H]2NC(=O)[C@@H]3CSSC[C@@H](C(=O)N[C@@H](CCCNC(=N)N)C(=O)N[C@@H](CCCCN)C(=O)N[C@H](C(=O)N[C@H](C(N)=O)[C@@H](C)CC)[C@@H](C)CC)NC(=O)[C@H](Cc4c[nH]c5ccccc45)NC(=O)[C@H](CC(C)C)NC(=O)[C@H](CCCCN)NC(=O)[C@H](CSSC[C@H](NC(=O)[C@H]([C@@H](C)O)NC(=O)[C@H](Cc4c[nH]c5ccccc45)NC1=O)C(=O)N[C@@H](CC(=O)O)C(=O)N[C@@H](CO)C(=O)N[C@@H](CCCCN)C(=O)N[C@@H](CCCNC(=N)N)C(=O)N[C@@H](C)C(=O)N3)NC(=O)[C@H](CCCNC(=N)N)NC(=O)[C@H](CC(C)C)NC(=O)CNC(=O)[C@H](CCC(=O)O)NC2=O [compound 898],Nav1.5/Nav1.7,hNav1.5; Table 13,2067
same,IC50,hNav1.5,5130 nM
same,Nav1.4/Nav1.7,hNav1.4 [1]; Table 13,6
same,IC50,hNav1.4 [1],15.5 nM
same,IC50,hNav1.7,2.48 nM
CCCC[C@@H]1NC(=O)[C@H](Cc2c[nH]c3ccccc23)NC(=O)[C@H](CCCCN)NC(=O)[C@H](CCC(N)=O)NC(=O)[C@@H](NC(=O)[C@@H](N)Cc2ccc(O)cc2)CSSC[C@@H]2NC(=O)[C@@H]3CSSC[C@@H](C(=O)N[C@@H](CCCNC(=N)N)C(=O)N[C@@H](CCCCN)C(=O)N[C@H](C(=O)N[C@@H](Cc4c[nH]c5ccccc45)C(N)=O)[C@@H](C)CC)NC(=O)[C@H](Cc4c[nH]c5ccccc45)NC(=O)[C@H](CC(C)C)NC(=O)[C@H](CCCCN)NC(=O)[C@H](CSSC[C@H](NC(=O)[C@H]([C@@H](C)O)NC(=O)[C@H](Cc4c[nH]c5ccccc45)NC1=O)C(=O)N[C@@H](CC(=O)O)C(=O)N[C@@H](CO)C(=O)N[C@@H](CCCCN)C(=O)N[C@@H](CCCNC(=N)N)C(=O)N[C@@H](C)C(=O)N3)NC(=O)[C@H](CCC(=O)O)NC(=O)[C@H](CC(C)C)NC(=O)CNC(=O)[C@H](CCCCN=[N+]=[N-])NC2=O [compound 307],Nav1.5/Nav1.7,hNav1.5; Table 12,83
same,Nav1.4/Nav1.7,hNav1.4 [1]; Table 12,40
C#CC[C@H](N)C(=O)N[C@@H](Cc1ccc(O)cc1)C(=O)N[C@H]1CSSC[C@@H]2NC(=O)[C@@H]3CSSC[C@@H](C(=O)N[C@@H](CCCNC(=N)N)C(=O)N[C@@H](CCCCN)C(=O)N[C@@H](CCC(N)=O)C(=O)N[C@H](C(N)=O)[C@@H](C)CC)NC(=O)[C@H](Cc4c[nH]c5ccccc45)NC(=O)[C@H](CC(C)C)NC(=O)[C@H](CCCCN)NC(=O)[C@H](CSSC[C@H](NC(=O)[C@H]([C@@H](C)O)NC(=O)[C@H](Cc4c[nH]c5ccccc45)NC(=O)[C@H](CCCC)NC(=O)[C@H](Cc4c[nH]c5ccccc45)NC(=O)[C@H](CCCCN)NC(=O)[C@H](CCC(N)=O)NC1=O)C(=O)N[C@@H](CC(=O)O)C(=O)N[C@@H](CO)C(=O)N[C@@H](CCCCN)C(=O)N[C@@H](CCCNC(=N)N)C(=O)N[C@@H](C)C(=O)N3)NC(=O)[C@H](CCCNC(=N)N)NC(=O)[C@H](CC(C)C)NC(=O)CNC(=O)[C@H](CCC(=O)O)NC2=O [compound 665],IC50,hNav1.5; [3],3220 nM
same,Nav1.5/Nav1.7,hNav1.5; Table 12,3529
same,IC50,hNav1.4 [1]; [3],10.7 nM
same,Nav1.4/Nav1.7,hNav1.4 [1]; Table 12,12
same,IC50,hNav1.7; [3],0.912 nM
